According to paper PMC11496704, “Synthesis and cytotoxicity studies of novel N-arylbenzo[h]quinazolin-2-amines” (Beilstein Journal of Organic Chemistry, 2024):
pIC50: −log10 of the molar value.

These molecules were tested on MCF7 (assay: Cytotoxicity secondary screen (IC50)). Settings: Homo sapiens, 48 h exposure, mean of triplicates, NE: no effect.
Type: cell-based

Cc1cccc(Nc2ncc3ccc4ccccc4c3n2)c1 [Compound 4c, N-(m-tolyl)benzo[h]quinazolin-2-amine] and COc1cccc(Nc2ncc3ccc4ccccc4c3n2)c1 [Compound 4f, N-(3-methoxyphenyl)benzo[h]quinazolin-2-amine] cannot be ordered by pIC50: 4.52 for the first, less than 4.60 for the second.

In the case of Brc1cc(Br)cc(Nc2ncc3ccc4ccccc4c3n2)c1 [Compound 4o, N-(3,5-dibromophenyl)benzo[h]quinazolin-2-amine], the pIC50 was 4.68.

Each molecule was assayed on HuH-7 (assay: Cytotoxicity secondary screen (IC50)). Settings: Homo sapiens, 48 h exposure, mean of triplicates, NE: no effect.
Type: cell-based
Description: (§1) Cell culture. Skin normal fibroblastic cells are purchased from Lonza (Basel, Switzerland), HuH-7, Caco-2, MDA-MB-231, HCT-116, PC3, MCF7 and NCI-H727 cancer cell lines were obtained from ATCC (American Type Culture Collection). Cells are grown at 37 °C, 5% CO2 in ATCC recommended media: DMEM for HuH-7, MDA-MB-231, MDA-MB-468 and fibroblast, EMEM for MCF7 and CaCo-2, McCoy’s for HCT-116 and RPMI for PC3 and NCI-H727. All culture media are supplemented by 10% of FBS, 1% of penicillin-streptomycin and 2 mM glutamine.
(§2) Both studies have been performed following the protocols described in a previous paper, see ref. [2].

First: Cc1cccc(Nc2ncc3ccc4ccccc4c3n2)c1 [Compound 4c, N-(m-tolyl)benzo[h]quinazolin-2-amine]
Second: COc1cccc(Nc2ncc3ccc4ccccc4c3n2)c1 [Compound 4f, N-(3-methoxyphenyl)benzo[h]quinazolin-2-amine]
The pIC50 of the first is lower: less than 4.60 for the first, 4.64 for the second. The second is the more potent here.

For Brc1cc(Br)cc(Nc2ncc3ccc4ccccc4c3n2)c1 [Compound 4o, N-(3,5-dibromophenyl)benzo[h]quinazolin-2-amine], the pIC50 was 4.62.

What follows are molecules tested on PC3 (assay: Cytotoxicity secondary screen (IC50)). Settings: Homo sapiens, PC-3; 48 h exposure, mean of triplicates; NE: no effect.
Type: cell-based
Description: as §1, §2

Cc1cccc(Nc2ncc3ccc4ccccc4c3n2)c1 [Compound 4c, N-(m-tolyl)benzo[h]quinazolin-2-amine] and COc1cccc(Nc2ncc3ccc4ccccc4c3n2)c1 [Compound 4f, N-(3-methoxyphenyl)benzo[h]quinazolin-2-amine] cannot be ordered by pIC50: less than 4.60 for the first, 4.59 for the second.

With Brc1cc(Br)cc(Nc2ncc3ccc4ccccc4c3n2)c1 [Compound 4o, N-(3,5-dibromophenyl)benzo[h]quinazolin-2-amine] the pIC50 was 4.68.

Each molecule was assayed on normal human fibroblasts (assay: Cytotoxicity secondary screen (IC50)). Settings: Fibroblast, 48 h exposure, mean of triplicates, NE: no effect, highest concentration tested 25 μM, read-out: IC50 Fibro.
Type: cell-based
Description: as §1, §2

Cc1cccc(Nc2ncc3ccc4ccccc4c3n2)c1 [Compound 4c, N-(m-tolyl)benzo[h]quinazolin-2-amine] and COc1cccc(Nc2ncc3ccc4ccccc4c3n2)c1 [Compound 4f, N-(3-methoxyphenyl)benzo[h]quinazolin-2-amine] cannot be ordered by pIC50: less than 4.60 for the first, less than 4.60 for the second.

Work on Brc1cc(Br)cc(Nc2ncc3ccc4ccccc4c3n2)c1 [Compound 4o, N-(3,5-dibromophenyl)benzo[h]quinazolin-2-amine] yielded a pIC50 of less than 4.60.

Each molecule was assayed on Caco-2 (assay: Cytotoxicity secondary screen (IC50)). Settings: Homo sapiens, 48 h exposure, mean of triplicates, NE: no effect.
Type: cell-based
Description: (§3) Next, we performed a cytotoxicity screening of the nineteen molecules 4a–s, at 25 μM, investigating seven representative cancer cell lines: hepatocellular carcinoma HuH-7, colorectal adenocarcinoma CaCo-2, breast carcinoma MDA-MB-231 and MDA-MB-468, colorectal carcinoma HCT-116, prostate carcinoma PC3 and breast carcinoma MCF7. […] For details see: ref. [2] and Supporting Information File 1, Table S1.
as §1, §2

In order of rising pIC50:
1. Cc1cccc(Nc2ncc3ccc4ccccc4c3n2)c1 [Compound 4c, N-(m-tolyl)benzo[h]quinazolin-2-amine]  4.55
2. Brc1cc(Br)cc(Nc2ncc3ccc4ccccc4c3n2)c1 [Compound 4o, N-(3,5-dibromophenyl)benzo[h]quinazolin-2-amine]  4.80
3. COc1cccc(Nc2ncc3ccc4ccccc4c3n2)c1 [Compound 4f, N-(3-methoxyphenyl)benzo[h]quinazolin-2-amine]  5.37

These molecules were tested on HCT-116 (assay: Cytotoxicity secondary screen (IC50)). Settings: Homo sapiens, 48 h exposure, mean of triplicates, NE: no effect.
Type: cell-based
Description: as §3, §1, §2

In order of falling pIC50:
1. COc1cccc(Nc2ncc3ccc4ccccc4c3n2)c1 [Compound 4f, N-(3-methoxyphenyl)benzo[h]quinazolin-2-amine]  5.00
2. Cc1cccc(Nc2ncc3ccc4ccccc4c3n2)c1 [Compound 4c, N-(m-tolyl)benzo[h]quinazolin-2-amine]  4.74
3. Brc1cc(Br)cc(Nc2ncc3ccc4ccccc4c3n2)c1 [Compound 4o, N-(3,5-dibromophenyl)benzo[h]quinazolin-2-amine]  4.64

The molecules below were run on MDA468 (assay: Cytotoxicity primary screen (single dose)). Settings: single dose 25 μM, 48 h exposure, mean of triplicates; read-out: percentage of cell survival over DMSO control, MDA468.
Type: cell-based
Description: as §3, §1, §2
(§4) Table S1: Cytotoxicity studies (single dose at 25µM) of N-arylbenzo[h]quinazolin-2-amines 4a–s
(§5) The toxicity is expressed as the percentage of cell survival (from 100 % to 0 %) over DMSO control after 48 h exposure (mean of triplicates).
(§6) Effect of the solvent (DMSO) was studied at 0.25%.

In order of falling viability at 25 µM:
1. COc1cccc(Nc2ncc3ccc4ccccc4c3n2)c1 [Compound 4f, N-(3-methoxyphenyl)benzo[h]quinazolin-2-amine]  73%
2. Cc1cccc(Nc2ncc3ccc4ccccc4c3n2)c1 [Compound 4c, N-(m-tolyl)benzo[h]quinazolin-2-amine]  65%
3. Brc1cc(Br)cc(Nc2ncc3ccc4ccccc4c3n2)c1 [Compound 4o, N-(3,5-dibromophenyl)benzo[h]quinazolin-2-amine]  47%

Each molecule was assayed on PC3 (assay: Cytotoxicity primary screen (single dose)). Settings: Homo sapiens, PC-3; single dose 25 μM, 48 h exposure, mean of triplicates; read-out: percentage of cell survival over DMSO control, PC3.
Type: cell-based
Description: as §3, §1, §2, §4, §5, §6

In order of falling viability at 25 µM:
1. Cc1cccc(Nc2ncc3ccc4ccccc4c3n2)c1 [Compound 4c, N-(m-tolyl)benzo[h]quinazolin-2-amine]  60%
2. COc1cccc(Nc2ncc3ccc4ccccc4c3n2)c1 [Compound 4f, N-(3-methoxyphenyl)benzo[h]quinazolin-2-amine]  54%
3. Brc1cc(Br)cc(Nc2ncc3ccc4ccccc4c3n2)c1 [Compound 4o, N-(3,5-dibromophenyl)benzo[h]quinazolin-2-amine]  38%

The molecules below were run on MDA231 (assay: Cytotoxicity primary screen (single dose)). Settings: Homo sapiens, MDA-MB-231; single dose 25 μM, 48 h exposure, mean of triplicates; read-out: percentage of cell survival over DMSO control, MDA231.
Type: cell-based
Description: as §3, §1, §2, §4, §5, §6

In order of falling viability at 25 µM:
1. Cc1cccc(Nc2ncc3ccc4ccccc4c3n2)c1 [Compound 4c, N-(m-tolyl)benzo[h]quinazolin-2-amine]  81%
2. COc1cccc(Nc2ncc3ccc4ccccc4c3n2)c1 [Compound 4f, N-(3-methoxyphenyl)benzo[h]quinazolin-2-amine]  77%
3. Brc1cc(Br)cc(Nc2ncc3ccc4ccccc4c3n2)c1 [Compound 4o, N-(3,5-dibromophenyl)benzo[h]quinazolin-2-amine]  67%

Each molecule was assayed on HCT116 (assay: Cytotoxicity primary screen (single dose)). Settings: Homo sapiens, HCT-116; single dose 25 μM, 48 h exposure, mean of triplicates; read-out: percentage of cell survival over DMSO control, HCT116.
Type: cell-based
Description: as §3, §1, §2, §4, §5, §6

In order of rising viability at 25 µM:
1. Brc1cc(Br)cc(Nc2ncc3ccc4ccccc4c3n2)c1 [Compound 4o, N-(3,5-dibromophenyl)benzo[h]quinazolin-2-amine]  27%
2. COc1cccc(Nc2ncc3ccc4ccccc4c3n2)c1 [Compound 4f, N-(3-methoxyphenyl)benzo[h]quinazolin-2-amine]  29%
3. Cc1cccc(Nc2ncc3ccc4ccccc4c3n2)c1 [Compound 4c, N-(m-tolyl)benzo[h]quinazolin-2-amine]  52%

Each molecule was assayed on MCF7 (assay: Cytotoxicity primary screen (single dose)). Settings: Homo sapiens, single dose 25 μM, 48 h exposure, mean of triplicates, read-out: percentage of cell survival over DMSO control, MCF7.
Type: cell-based
Description: as §3, §1, §2, §4, §5, §6

In order of falling viability at 25 µM:
1. Brc1cc(Br)cc(Nc2ncc3ccc4ccccc4c3n2)c1 [Compound 4o, N-(3,5-dibromophenyl)benzo[h]quinazolin-2-amine]  85%
2. COc1cccc(Nc2ncc3ccc4ccccc4c3n2)c1 [Compound 4f, N-(3-methoxyphenyl)benzo[h]quinazolin-2-amine]  78%
3. Cc1cccc(Nc2ncc3ccc4ccccc4c3n2)c1 [Compound 4c, N-(m-tolyl)benzo[h]quinazolin-2-amine]  50%

Each molecule was assayed on MDA-MB-231 (assay: Cytotoxicity secondary screen (IC50)). Settings: Homo sapiens, 48 h exposure, mean of triplicates, NE: no effect.
Type: cell-based

Cc1cccc(Nc2ncc3ccc4ccccc4c3n2)c1 [Compound 4c, N-(m-tolyl)benzo[h]quinazolin-2-amine] and COc1cccc(Nc2ncc3ccc4ccccc4c3n2)c1 [Compound 4f, N-(3-methoxyphenyl)benzo[h]quinazolin-2-amine] cannot be ordered by pIC50: less than 4.60 for the first, less than 4.60 for the second.

Molecule Brc1cc(Br)cc(Nc2ncc3ccc4ccccc4c3n2)c1 [Compound 4o, N-(3,5-dibromophenyl)benzo[h]quinazolin-2-amine] has a pIC50 of less than 4.60.

What follows are molecules tested on HuH7 (assay: Cytotoxicity primary screen (single dose)). Settings: Homo sapiens, Huh-7; single dose 25 μM, 48 h exposure, mean of triplicates; read-out: percentage of cell survival over DMSO control, HuH7.
Type: cell-based
Description: as §3, §1, §2, §4, §5, §6

In order of falling viability at 25 µM:
1. Cc1cccc(Nc2ncc3ccc4ccccc4c3n2)c1 [Compound 4c, N-(m-tolyl)benzo[h]quinazolin-2-amine]  68%
2. Brc1cc(Br)cc(Nc2ncc3ccc4ccccc4c3n2)c1 [Compound 4o, N-(3,5-dibromophenyl)benzo[h]quinazolin-2-amine]  62%
3. COc1cccc(Nc2ncc3ccc4ccccc4c3n2)c1 [Compound 4f, N-(3-methoxyphenyl)benzo[h]quinazolin-2-amine]  59%

The molecules below were run on Caco-2 (assay: Cytotoxicity primary screen (single dose)). Settings: single dose 25 μM, 48 h exposure, mean of triplicates.
Type: cell-based
Description: as §3, §1, §2, §4, §5, §6

In order of rising “percentage of cell survival over DMSO control, CaCo-2” value:
1. Brc1cc(Br)cc(Nc2ncc3ccc4ccccc4c3n2)c1 [Compound 4o, N-(3,5-dibromophenyl)benzo[h]quinazolin-2-amine]  46%
2. Cc1cccc(Nc2ncc3ccc4ccccc4c3n2)c1 [Compound 4c, N-(m-tolyl)benzo[h]quinazolin-2-amine]  50%
3. COc1cccc(Nc2ncc3ccc4ccccc4c3n2)c1 [Compound 4f, N-(3-methoxyphenyl)benzo[h]quinazolin-2-amine]  59%

What follows are molecules tested on MDA-MB-468 (assay: Cytotoxicity secondary screen (IC50)). Settings: Homo sapiens, 48 h exposure, mean of triplicates, NE: no effect.
Type: cell-based

In order of falling pIC50:
1. Brc1cc(Br)cc(Nc2ncc3ccc4ccccc4c3n2)c1 [Compound 4o, N-(3,5-dibromophenyl)benzo[h]quinazolin-2-amine]  4.70
2. Cc1cccc(Nc2ncc3ccc4ccccc4c3n2)c1 [Compound 4c, N-(m-tolyl)benzo[h]quinazolin-2-amine]  4.66
3. COc1cccc(Nc2ncc3ccc4ccccc4c3n2)c1 [Compound 4f, N-(3-methoxyphenyl)benzo[h]quinazolin-2-amine]  4.48
